Measured values published in patent US12378211B2, “Carbonic anhydrase inhibitors and antibiotics against multidrug resistant bacteria” (Purdue Research Foundation, priority 2018, dated 2025).
Values after ≈ are worked out from the molar mass of the structure shown.

Assays:
Assay in all cases: MIC, broth microdilution in TSB
Format in all cases: cell-based
[1] = tested on: Enterococcus faecalis—S613 HM-334; settings: TSB, Table 7; for MIC: Enterococcus, read-out: MIC in TSB
Protocol: (§1) The minimum inhibitory concentrations (MICs) of the compounds and control drugs were determined using the broth microdilution method, according to guidelines outlined by the Clinical and Laboratory Standards Institute (CLSI). Enterococci strains were grown aerobically overnight on tryptone soya agar plates at 37° C., afterwards a bacterial solution equivalent to 0.5 McFarland standard was prepared and diluted in tryptone soy broth (TSB) to achieve a bacterial concentration of about 5×10^5 CFU/mL and seeded in 96-well well plates. Compounds and control drugs were added in the first row of the 96-well plates and serially diluted along the plates. Plates were then incubated aerobically at 37° C. for 18-20 hours. MICs reported in Table 1 are the minimum concentration of the compounds/control drugs that could inhibit completely the visual growth of the bacteria.

[2] = tested on: Enterococcus faecium E417-HM-965; settings: TSB, Table 7; for MIC: Enterococcus faecium, E417HM965, read-out: MIC in TSB
Protocol: as §1

[3] = tested on: Enterococcus faecium Patient #2-1-NR-31909; settings: TSB, Table 7; for MIC: Enterococcus faecium, read-out: MIC in TSB
Protocol: as §1

[4] = tested on: Enterococcus faecium Patient #3-1 NR-31912; settings: TSB, Table 7; for MIC: Enterococcus faecium, read-out: MIC in TSB
Protocol: as §1

[5] = tested on: Enterococcus fecalis Strain MMH594-NR31975; settings: TSB, Table 7; for MIC: Enterococcus, read-out: MIC in TSB
Protocol: as §1

[6] = tested on: Enterococcus fecalis Strain SF 24397 NR31970; settings: TSB, Table 7; for MIC: Enterococcus, read-out: MIC in TSB
Protocol: as §1

[7] = tested on: Enterococcus fecalis Strain SF 28073-NR31972; settings: TSB, Table 7; for MIC: Enterococcus, read-out: MIC in TSB
Protocol: as §1

[8] = tested on: Enterococcus fecalis Strain SF24413 NR31971; settings: TSB, Table 7; for MIC: Enterococcus, read-out: MIC in TSB
Protocol: as §1

Row | Compound | MIC [1] [µg/mL] | MIC [2] [µg/mL] | MIC [3] [µg/mL] | MIC [4] [µg/mL] | MIC [5] [µg/mL] | MIC [6] [µg/mL] | MIC [7] [µg/mL] | MIC [8] [µg/mL] | MIC in TSB [1] [µg/mL] | MIC in TSB [2] [µg/mL] | MIC in TSB [3] [µg/mL] | MIC in TSB [4] [µg/mL] | MIC in TSB [5] [µg/mL] | MIC in TSB [6] [µg/mL] | MIC in TSB [7] [µg/mL] | MIC in TSB [8] [µg/mL]
1 | CC(C)CC(=O)Nc1nnc(S(N)(=O)=O)s1 [CAI0026, 3-Methyl-N-(5-sulfamoyl-1,3,4-thiadiazol-2-yl)butanamide] | 0.25 (≈ 0.946 µM) | 0.125 (≈ 0.473 µM) | 0.003 (≈ 0.0113 µM) | 0.125 (≈ 0.473 µM) | 0.25 (≈ 0.946 µM) | 0.25 (≈ 0.946 µM) | 0.5 (≈ 1.89 µM) | 0.25 (≈ 0.946 µM) |  |  |  |  |  |  |  | 
2 | NS(=O)(=O)c1nnc(NCc2ccccc2Cl)s1 [CAI0002, 5-((2-chlorobenzyl)amino)-1,3,4-thiadiazole-2-sulfonamide] |  | > 64 | > 64 | > 64 |  |  | > 64 |  |  |  |  |  |  |  |  | 
3 | CC(C)(C)CC(=O)Nc1nnc(S(N)(=O)=O)s1 [CAI0028, 3,3-Dimethyl-N-(5-sulfamoyl-1,3,4-thiadiazol-2-yl)butanamide] | 0.03 (≈ 0.108 µM) | 0.015 (≈ 0.0539 µM) | 0.003 (≈ 0.0108 µM) | 0.003 (≈ 0.0108 µM) | 0.03 (≈ 0.108 µM) | 0.015 (≈ 0.0539 µM) | 0.03 (≈ 0.108 µM) | 0.03 (≈ 0.108 µM) |  |  |  |  |  |  |  | 
4 | NS(=O)(=O)c1nnc(NCc2ccccc2)s1 [CAI0005, 5-(benzylamino)-1,3,4-thiadiazole-2-sulfonamide] |  | > 64 | > 64 |  |  |  | > 64 |  |  |  |  |  |  |  |  | 
5 | NS(=O)(=O)c1nnc(NCc2ccccc2C(F)(F)F)s1 [CAI0006, 5-((2-(trifluoromethyl)benzyl)amino)-1,3,4-thiadiazole-2-sulfonamide] |  | > 64 | > 64 |  |  |  | > 64 |  |  |  |  |  |  |  |  | 
6 | CC(=O)Nc1nnc(S(C)(=O)=O)s1 [CAI0025, N-(5-(Methylsulfonyl)-1,3,4-thiadiazol-2-yl)acetamide] | > 128 | > 128 | > 128 | > 128 | > 128 | > 128 | > 128 | > 128 |  |  |  |  |  |  |  | 
7 | NS(=O)(=O)c1nnc(NCc2ccc(C(F)(F)F)cc2)s1 [CAI0008, 5-((4-(trifluoromethyl)benzyl)amino)-1,3,4-thiadiazole-2-sulfonamide] |  | > 64 | > 64 | > 64 |  |  | > 64 |  |  |  |  |  |  |  |  | 
8 | NS(=O)(=O)c1nnc(NCc2cccc(C(F)(F)F)c2)s1 [CAI0007, 5-((3-(trifluoromethyl)benzyl)amino)-1,3,4-thiadiazole-2-sulfonamide] |  | 8 (≈ 23.6 µM) | 8 (≈ 23.6 µM) | 8 (≈ 23.6 µM) |  |  | 4 (≈ 11.8 µM) |  |  |  |  |  |  |  |  | 
9 | NS(=O)(=O)c1nnc(NC(=O)C2CCCC2)s1 [CAI0023, N-(5-Sulfamoyl-1,3,4-thiadiazol-2-yl)cyclopentanecarboxamide] | 0.5 (≈ 1.81 µM) | 0.25 (≈ 0.905 µM) | 0.06 (≈ 0.217 µM) | 0.25 (≈ 0.905 µM) | 0.5 (≈ 1.81 µM) | 0.5 (≈ 1.81 µM) | 1 (≈ 3.62 µM) | 0.5 (≈ 1.81 µM) |  |  |  |  |  |  |  | 
10 | NS(=O)(=O)c1nnc(NCc2ccc(Cl)cc2)s1 [CAI0001, 5-((4-chlorobenzyl)amino)-1,3,4-thiadiazole-2-sulfonamide] |  | > 64 | 8 (≈ 26.2 µM) | > 64 |  |  | > 64 |  |  |  |  |  |  |  |  | 
11 | NS(=O)(=O)c1nnc(NC(=O)C2CC2)s1 [CAI0020, N-(5-Sulfamoyl-1,3,4-thiadiazol-2-yl)cyclopropanecarboxamide] | 0.007 (≈ 0.0282 µM) | 0.007 (≈ 0.0282 µM) | 0.001 (≈ 0.00403 µM) | 0.007 (≈ 0.0282 µM) | 0.007 (≈ 0.0282 µM) | 0.015 (≈ 0.0604 µM) | 0.003 (≈ 0.0121 µM) | 0.015 (≈ 0.0604 µM) |  |  |  |  |  |  |  | 
12 | NS(=O)(=O)c1nnc(NC(=O)CC2CCCCC2)s1 [CAI0029, 2-Cyclohexyl-N-(5-sulfamoyl-1,3,4-thiadiazol-2-yl)acetamide] | 0.015 (≈ 0.0493 µM) | 0.06 (≈ 0.197 µM) | 0.001 (≈ 0.00329 µM) | 0.03 (≈ 0.0986 µM) | 0.015 (≈ 0.0493 µM) | 0.007 (≈ 0.023 µM) | 0.015 (≈ 0.0493 µM) | 0.03 (≈ 0.0986 µM) |  |  |  |  |  |  |  | 
13 | CCCCCCC(=O)Nc1nnc(S(N)(=O)=O)s1 [CAI0027, N-(5-Sulfamoyl-1,3,4-thiadiazol-2-yl)heptanamide] | 0.007 (≈ 0.0239 µM) | 0.015 (≈ 0.0513 µM) | 0.001 (≈ 0.00342 µM) | 0.007 (≈ 0.0239 µM) | 0.015 (≈ 0.0513 µM) | 0.007 (≈ 0.0239 µM) | 0.015 (≈ 0.0513 µM) | 0.015 (≈ 0.0513 µM) |  |  |  |  |  |  |  | 
14 | NS(=O)(=O)c1nnc(NCc2ccc(Br)cc2)s1 [CAI0003, 5-((4-bromobenzyl)amino)-1,3,4-thiadiazole-2-sulfonamide] |  | > 64 | > 64 | > 64 |  |  | > 64 |  |  |  |  |  |  |  |  | 
15 | NS(=O)(=O)c1nnc(NCc2cccc(Br)c2)s1 [CAI0004, 5-((3-bromobenzyl)amino)-1,3,4-thiadiazole-2-sulfonamide] |  | 16 (≈ 45.8 µM) | 8 (≈ 22.9 µM) | 8 (≈ 22.9 µM) |  |  | 8 (≈ 22.9 µM) |  |  |  |  |  |  |  |  | 
16 | 3-cyclohexyl-N-(5-sulfamoyl-1,3,4-thiadiazol-2-yl) propenamide [CAI0019] |  |  |  |  |  |  |  |  | 0.007 | 0.007 | 0.003 | 0.007 | 0.015 | 0.015 | 0.015 | 0.015
17 | NS(=O)(=O)c1nnc(NC(=O)C2CCCCC2)s1 [CAI0022, N-(5-Sulfamoyl-1,3,4-thiadiazol-2-yl)cyclohexanecarboxamide] | 0.25 (≈ 0.861 µM) | 0.25 (≈ 0.861 µM) | 0.015 (≈ 0.0517 µM) | 0.125 (≈ 0.43 µM) | 0.25 (≈ 0.861 µM) | 0.25 (≈ 0.861 µM) | 0.25 (≈ 0.861 µM) | 0.5 (≈ 1.72 µM) |  |  |  |  |  |  |  | 
18 | NS(=O)(=O)c1nnc(NC(=O)CC2CCCC2)s1 [CAI0021, 2-Cyclopentyl-N-(5-sulfamoyl-1,3,4-thiadiazol-2-yl)acetamide] | 0.03 (≈ 0.103 µM) | 0.06 (≈ 0.207 µM) | 0.003 (≈ 0.0103 µM) | 0.03 (≈ 0.103 µM) | 0.03 (≈ 0.103 µM) | 0.03 (≈ 0.103 µM) | 0.03 (≈ 0.103 µM) | 0.06 (≈ 0.207 µM) |  |  |  |  |  |  |  | 
19 | NS(=O)(=O)c1nnc(NC(=O)C2CCC2)s1 [CAI0018, N-(5-Sulfamoyl-1,3,4-thiadiazol-2-yl)cyclobutanecarboxamide] | 1 (≈ 3.81 µM) | 0.5 (≈ 1.91 µM) | 0.25 (≈ 0.953 µM) | 0.5 (≈ 1.91 µM) | 0.5 (≈ 1.91 µM) | 1 (≈ 3.81 µM) | 1 (≈ 3.81 µM) | 1 (≈ 3.81 µM) |  |  |  |  |  |  |  | 
